Patent publication US11078197B2, “5-membered and bicyclic heterocyclic amides as inhibitors of rock” (BRISTOL-MYERS SQUIBB COMPANY, priority 2017, dated 2021)

Target: ROCK2 (Homo sapiens (Human), UniProt O75116)
Experiment: ROCK2 assay (peptide phosphorylation, LABCHIP 3000 Reader)
Assay type: biochemical
Conditions: 5 μM ATP, 1.5 μM peptide substrate, dose-response
Description: After incubation, the reaction was terminated by the addition of EDTA and the phosphorylated and non-phosphorylated peptides separated using a LABCHIP®3000 Reader (Caliper Life Sciences). […] Compounds were tested in dose-response format, and the inhibition of kinase activity was calculated at each concentration of compound. […] Representative Examples were tested in the ROCK2 assay described above and found having ROCK2 inhibitory activity.

Sequence of ROCK2 (O75116 whole entry, species assumed): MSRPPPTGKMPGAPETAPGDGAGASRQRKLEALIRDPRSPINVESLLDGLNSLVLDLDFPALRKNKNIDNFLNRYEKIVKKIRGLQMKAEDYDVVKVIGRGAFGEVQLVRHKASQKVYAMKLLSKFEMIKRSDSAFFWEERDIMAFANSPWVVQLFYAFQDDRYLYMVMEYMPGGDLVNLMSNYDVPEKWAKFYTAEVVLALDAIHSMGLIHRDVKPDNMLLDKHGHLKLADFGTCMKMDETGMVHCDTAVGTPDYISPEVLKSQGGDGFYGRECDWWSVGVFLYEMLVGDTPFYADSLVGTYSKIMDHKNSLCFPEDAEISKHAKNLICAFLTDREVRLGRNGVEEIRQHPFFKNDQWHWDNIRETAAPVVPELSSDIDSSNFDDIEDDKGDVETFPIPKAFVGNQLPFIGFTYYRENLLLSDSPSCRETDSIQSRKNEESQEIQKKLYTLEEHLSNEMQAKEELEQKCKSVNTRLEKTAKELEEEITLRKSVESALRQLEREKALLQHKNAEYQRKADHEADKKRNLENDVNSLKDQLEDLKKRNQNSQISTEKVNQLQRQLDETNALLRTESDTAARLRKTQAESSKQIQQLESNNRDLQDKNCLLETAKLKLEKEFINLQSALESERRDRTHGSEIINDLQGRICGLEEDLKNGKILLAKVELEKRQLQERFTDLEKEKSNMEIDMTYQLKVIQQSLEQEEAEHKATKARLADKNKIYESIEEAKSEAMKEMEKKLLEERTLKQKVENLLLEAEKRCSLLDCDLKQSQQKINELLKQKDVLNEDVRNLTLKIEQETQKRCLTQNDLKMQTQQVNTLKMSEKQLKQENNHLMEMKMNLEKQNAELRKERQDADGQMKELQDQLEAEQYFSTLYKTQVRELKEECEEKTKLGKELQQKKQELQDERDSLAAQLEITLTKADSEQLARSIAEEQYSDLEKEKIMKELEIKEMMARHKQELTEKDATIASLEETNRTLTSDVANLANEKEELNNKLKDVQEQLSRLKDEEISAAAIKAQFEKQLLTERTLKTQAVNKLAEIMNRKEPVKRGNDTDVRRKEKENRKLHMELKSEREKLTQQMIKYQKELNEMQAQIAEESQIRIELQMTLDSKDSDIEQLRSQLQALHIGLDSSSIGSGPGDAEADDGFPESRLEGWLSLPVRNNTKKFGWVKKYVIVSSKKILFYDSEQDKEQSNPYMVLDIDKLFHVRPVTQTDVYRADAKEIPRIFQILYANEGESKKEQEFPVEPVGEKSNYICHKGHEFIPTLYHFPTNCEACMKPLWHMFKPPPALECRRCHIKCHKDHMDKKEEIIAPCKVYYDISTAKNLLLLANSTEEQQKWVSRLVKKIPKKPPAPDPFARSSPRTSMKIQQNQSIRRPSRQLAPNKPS

Question: With NC(=O)c1cn(C(F)F)nc1O[C@H]1C[C@@]2(C[C@H](NC(=O)c3cnn4cc(OCC(F)(F)F)ccc34)C2)C1 (stereo partly drawn) [Example 53, 1-(difluoromethyl)-3-{[(aR)-6-[6-(2,2,2-trifluoroethoxy)pyrazolo[1,5-a]pyridine-3-amido]spiro[3.3]heptan-2-yl]oxy}-1H-pyrazole-4-carboxamide] as the compound, how does the IC50 read?
Answer: The IC50 was 22 nM.

Question: With Cc1c(C(=O)N[C@H]2C[C@]3(C2)C[C@H](Oc2nn(C(F)F)cc2C(N)=O)C3)cnn1-c1ccc(C#N)cc1 (stereo partly drawn) [Example 54, 1-(4-cyanophenyl)-5-methyl-N-[(aR)-6-{[4-carbamoyl-1-(difluoromethyl)-1H-pyrazol-3-yl]oxy}spiro[3.3]heptan-2-yl]-1H-pyrazole-4-carboxamide] as the compound, how does the IC50 read?
Answer: Its IC50 is 253 nM.

Question: For Cc1c(C(=O)N[C@H]2C[C@]3(C2)C[C@H](Oc2nn(C(F)F)cc2C(N)=O)C3)cnn1-c1ccc(Cl)cc1 (stereo partly drawn) [Example 55, 1-(4-chlorophenyl)-5-methyl-N-[(aR)-6-{[4-carbamoyl-1-(difluoromethyl)-1H-pyrazol-3-yl]oxy}spiro[3.3]heptan-2-yl]-1H-pyrazole-4-carboxamide], which IC50 is on record?
Answer: Its IC50 is 78.3 nM.

Question: With NC(=O)c1cn(C2CC2)nc1O[C@H]1C[C@@]2(C[C@H](NC(=O)c3cnn4cc(OCC(F)(F)F)ccc34)C2)C1 (stereo partly drawn) [Example 56, 1-cyclopropyl-3-{[(aR)-6-[6-(2,2,2-trifluoroethoxy)pyrazolo [1,5-a]pyridine-3-amido]spiro[3.3]heptan-2-yl]oxy}-1H-pyrazole-4-carboxamide] as the compound, how does the IC50 read?
Answer: The IC50 was 53.2 nM.

Question: For NC(=O)c1cn(C2CC2)nc1O[C@H]1C[C@@]2(C[C@H](NC(=O)c3cnn4cc(OCC(F)F)ccc34)C2)C1 (stereo partly drawn) [Example 57, 1-cyclopropyl-3-{[(aR)-6-[6-(2,2-difluoroethoxy)pyrazolo[1,5-a]pyridine-3-amido]spiro[3.3]heptan-2-yl]oxy}-1H-pyrazole-4-carboxamide], which IC50 is on record?
Answer: The IC50 was 15.9 nM.

Question: Which IC50 does the source give for NC(=O)c1cn(C2CC2)nc1O[C@H]1C[C@@]2(C[C@H](NC(=O)c3nc(C(F)(F)F)n4ccccc34)C2)C1 (stereo partly drawn) [Example 58, 1-cyclopropyl-3-{[(aR)-6-[3-(trifluoromethyl)imidazo[1,5-a]pyridine-1-amido]spiro[3.3]heptan-2-yl]oxy}-1H-pyrazole-4-carboxamide] here?
Answer: The IC50 was 204 nM.

Question: With NC(=O)c1cn(C2CC2)nc1O[C@H]1C[C@@]2(C[C@H](NC(=O)c3nc(C(F)(F)F)n4cc(-c5ccc(F)nc5)ccc34)C2)C1 (stereo partly drawn) [Example 59, 1-cyclopropyl-3-{[(aR)-6-[6-(6-fluoropyridin-3-yl)-3-(trifluoromethyl)imidazo[1,5-a]pyridine-1-amido]spiro[3.3]heptan-2-yl]oxy}-1H-pyrazole-4-carboxamide] as the compound, how does the IC50 read?
Answer: Its IC50 is 5.3 nM.

Question: NC(=O)c1cn(C2CC2)nc1O[C@H]1C[C@@]2(C[C@H](NC(=O)c3nc(C(F)(F)F)n4cc(Br)ccc34)C2)C1 (stereo partly drawn) [Example 60, 1-cyclopropyl-3-{[(aR)-6-[6-bromo-3-(trifluoromethyl)imidazo[1,5-a]pyridine-1-amido]spiro[3.3]heptan-2-yl]oxy}-1H-pyrazole-4-carboxamide] was tested. Which IC50 did it give?
Answer: Its IC50 is 35.5 nM.

Question: For NC(=O)c1sc(C2CC2)nc1O[C@H]1C[C@@]2(C[C@H](NC(=O)c3cnn4cc(OCC(O)(C(F)(F)F)C(F)(F)F)ccc34)C2)C1 (stereo partly drawn) [Example 61, 2-cyclopropyl-4-{[(aR)-6-{6-[3,3,3-trifluoro-2-hydroxy-2-(trifluoromethyl)propoxy]pyrazolo[1,5-a]pyridine-3-amido}spiro[3.3]heptan-2-yl]oxy}-1,3-thiazole-5-carboxamide], which IC50 is on record?
Answer: The IC50 was 55.5 nM.

Question: NC(=O)c1sc(C2CC2)nc1O[C@H]1CC2(C[C@H](NC(=O)c3cnn4cc(OCC(F)(F)F)ccc34)C2)C1 (stereo partly drawn) [Example 62, 2-cyclopropyl-4-{[(aR)-6-[6-(2,2,2-trifluoroethoxy)pyrazolo [1,5-a]pyridine-3-amido]spiro[3.3]heptan-2-yl]oxy}-1,3-thiazole-5-carboxamide] was tested. Which IC50 did it give?
Answer: The IC50 was 11.6 nM.

Question: For NC(=O)c1sc(C2CC2)nc1O[C@H]1C[C@@]2(C[C@H](NC(=O)c3nc(C(F)(F)F)n4cc(-c5ccc(F)nc5)ccc34)C2)C1 (stereo partly drawn) [Example 63, 2-cyclopropyl-4-{[(aR)-6-[6-(6-fluoropyridin-3-yl)-3-(trifluoromethyl)imidazo[1,5-a]pyridine-1-amido]spiro[3.3]heptan-2-yl]oxy}-1,3-thiazole-5-carboxamide], which IC50 is on record?
Answer: The IC50 was 6.1 nM.

Question: For NC(=O)c1sc(C2CC2)nc1O[C@H]1C[C@@]2(C[C@H](NC(=O)c3nc(C(F)(F)F)n4ccccc34)C2)C1 (stereo partly drawn) [Example 64, 2-cyclopropyl-4-{[(aR)-6-[3-(trifluoromethyl)imidazo[1,5-a]pyridine-1-amido]spiro[3.3]heptan-2-yl]oxy}-1,3-thiazole-5-carboxamide], which IC50 is on record?
Answer: Its IC50 is 11.4 nM.

Question: For Cc1c(C(=O)N[C@H]2C[C@]3(C2)C[C@H](Oc2nn(C4CC4)cc2C(N)=O)C3)cnn1-c1ccccc1 (stereo partly drawn) [Example 65, 1-cyclopropyl-3-{[(aR)-6-(5-methyl-1-phenyl-1H-pyrazole-4-amido)spiro[3.3]heptan-2-yl]oxy}-1H-pyrazole-4-carboxamide], which IC50 is on record?
Answer: The IC50 was 141 nM.

Question: Cc1c(C(=O)N[C@H]2C[C@]3(C2)C[C@H](Oc2nn(C4CC4)cc2C(N)=O)C3)cnn1-c1ccc(F)cc1F (stereo partly drawn) [Example 66, 1-cyclopropyl-3-{[(aR)-6-[1-(2,4-difluorophenyl)-5-methyl-1H-pyrazole-4-amido]spiro[3.3]heptan-2-yl]oxy}-1H-pyrazole-4-carboxamide] was tested. Which IC50 did it give?
Answer: Its IC50 is 225 nM.

Question: Cc1c(C(=O)N[C@H]2C[C@]3(C2)C[C@H](Oc2nc(C4CC4)sc2C(N)=O)C3)cnn1-c1ccc(F)cc1F (stereo partly drawn) [Example 67, 2-cyclopropyl-4-{[(aR)-6-[1-(2,4-difluorophenyl)-5-methyl-1H-pyrazole-4-amido]spiro[3.3]heptan-2-yl]oxy}-1,3-thiazole-5-carboxamide] was tested. Which IC50 did it give?
Answer: Its IC50 is 142 nM.

Question: With Cc1c(C(=O)N[C@H]2C[C@]3(C2)C[C@H](Oc2nc(C4CC4)sc2C(N)=O)C3)cnn1-c1ccccc1 (stereo partly drawn) [Example 68, 2-cyclopropyl-4-{[(aR)-6-(5-methyl-1-phenyl-1H-pyrazole-4-amido)spiro[3.3]heptan-2-yl]oxy}-1,3-thiazole-5-carboxamide] as the compound, how does the IC50 read?
Answer: Its IC50 is 108 nM.

Question: Which IC50 does the source give for CC(C)(O)COc1ccc2c(C(=O)N[C@H]3C[C@]4(C3)C[C@H](Oc3nn(C5CC5)cc3C(N)=O)C4)cnn2c1C1CC1 (stereo partly drawn) [Example 69, 1-cyclopropyl-3-({(aR)-6-[7-cyclopropyl-6-(2-hydroxy-2-methylpropoxy)pyrazolo [1,5-a]pyridine-3-amido]spiro[3.3]heptan-2-yl}oxy)-1H-pyrazole-4-carboxamide] here?
Answer: Its IC50 is 4.5 nM.

Question: For Cc1nc(O[C@H]2C[C@@]3(C[C@H](NC(=O)c4cnn5cc(OCC(F)F)ccc45)C3)C2)c(C(N)=O)s1 (stereo partly drawn) [Example 70, 2-methyl-4-{[(aR)-6-[6-(2,2-difluoroethoxy)pyrazolo [1,5-a]pyridine-3-amido]spiro[3.3]heptan-2-yl]oxy}-1,3-thiazole-5-carboxamide], which IC50 is on record?
Answer: The IC50 was 45.4 nM.

Question: With CC(C)(O)COc1ccc2c(C(=O)N[C@H]3C[C@]4(C3)C[C@H](Oc3nc5ccccc5cc3C(N)=O)C4)cnn2c1C1CC1 (stereo partly drawn) [Example 71, 2-(((aR)6-(7-cyclopropyl-6-(2-hydroxy-2-methylpropoxy)pyrazolo [1,5-a]pyridine-3-carboxamido)spiro [3.3]heptan-2-yl)oxy)quinoline-3-carboxamide] as the compound, how does the IC50 read?
Answer: Its IC50 is 8.7 nM.

Question: How did the IC50 turn out when Cc1nn(C)c2nc(OC3CC4(CC(NC(=O)c5cnn6cc(OCC(C)(C)O)ccc56)C4)C3)c(C(N)=O)cc12 (stereo not shown) [Example 73, 6-({6-[6-(2-hydroxy-2-methylpropoxy)pyrazolo [1,5-a]pyridine-3-amido]spiro[3.3]heptan-2-yl}oxy)-1,3-dimethyl-1H-pyrazolo[3,4-b]pyridine-5-carboxamide] was run?
Answer: The IC50 was 1160 nM.

Question: Which IC50 does the source give for NC(=O)c1cc2sccc2nc1OC1CC2(CC(NC(=O)c3cnn4ccccc34)C2)C1 (stereo not shown) [Example 75, 5-[(6-{pyrazolo[1,5-a]pyridine-3-amido}spiro[3.3]heptan-2-yl)oxy]thieno[3,2-b]pyridine-6-carboxamide] here?
Answer: The IC50 was 26.7 nM.

Question: Which IC50 does the source give for CC(C)(O)COc1ccc2c(C(=O)NC3CC4(C3)CC(Oc3nc5ccsc5cc3C(N)=O)C4)cnn2c1 (stereo not shown) [Example 76, 5-({6-[6-(2-hydroxy-2-methylpropoxy)pyrazolo[1,5-a]pyridine-3-amido]spiro[3.3]heptan-2-yl}oxy)thieno[3,2-b]pyridine-6-carboxamide] here?
Answer: The IC50 was 6.8 nM.

Question: NC(=O)c1cc2sccc2nc1OC1CC2(CC(NC(=O)C3CCC(F)(F)CC3)C2)C1 (stereo not shown) [Example 77, 5-{[6-(4,4-difluorocyclohexane amido)spiro[3.3]heptan-2-yl]oxy}thieno[3,2-b]pyridine-6-carboxamide] was tested. Which IC50 did it give?
Answer: The IC50 was 634 nM.

Question: N#Cc1cccc(C(=O)NC2CC3(C2)CC(Oc2nc4ccsc4cc2C(N)=O)C3)c1 (stereo not shown) [Example 79, 5-{[6-(3-cyanobenzamido)spiro[3.3]heptan-2-yl]oxy}thieno[3,2-b]pyridine-6-carboxamide] was tested. Which IC50 did it give?
Answer: Its IC50 is 22.2 nM.

Question: Which IC50 does the source give for NC(=O)c1cc2c(nc1OC1CC3(CC(NC(=O)c4cnn5ccccc45)C3)C1)CCOC2 (stereo not shown) [Example 81, 2-[(6-{pyrazolo[1,5-a]pyridine-3-amido}spiro[3.3]heptan-2-yl)oxy]-5H,7H,8H-pyrano[4,3-b]pyridine-3-carboxamide] here?
Answer: The IC50 was 323 nM.

Question: How did the IC50 turn out when CC(C)(O)COc1ccc2c(C(=O)NC3CC4(C3)CC(Oc3nc5c(cc3C(N)=O)COCC5)C4)cnn2c1 (stereo not shown) [Example 82, N-[6-({3-carbamoyl-5H,7H,8H-pyrano[4,3-b]pyridin-2-yl}oxy)spiro[3.3]heptan-2-yl]-6-(2-hydroxy-2-methylpropoxy) pyrazolo[1,5-a]pyridine-3-carboxamide] was run?
Answer: The IC50 was 20 nM.

Question: How did the IC50 turn out when N#Cc1cccc(C(=O)N[C@H]2C[C@]3(C2)C[C@H](Oc2nc4ccsc4cc2C(N)=O)C3)c1 (stereo partly drawn) [Example 83, 5-{[(aR)-6-(3-cyanobenzamido)spiro[3.3]heptan-2-yl]oxy}thieno[3,2-b]pyridine-6-carboxamide] was run?
Answer: Its IC50 is 9.7 nM.

Question: Which IC50 does the source give for CC(C)(O)COc1ccc2c(C(=O)N[C@H]3C[C@]4(C3)C[C@H](Oc3nc5ccsc5cc3C(N)=O)C4)cnn2c1 (stereo partly drawn) [Example 84, 6-(2-hydroxy-2-methylpropoxy)-N-[(aR)-6-({6-carbamoylthieno[3,2-b]pyridin-5-yl}oxy)spiro[3.3]heptan-2-yl]pyrazolo[1,5-a]pyridine-3-carboxamide] here?
Answer: Its IC50 is 2.2 nM.
